# Experimental data published in patent US20060252683A1, “Preparation of a peptide compound (SYRAPRO-2000) and its use for the activation of protein phosphatase-2A1 enzyme” (priority 2005, published 2006).
# Experiments:
# [1] = Cell viability (tryphan blue) and cell death of HTB-3 cells; assay type: cell-based, human; details: human, HTB-3 cells (glioblastoma cell line), 2000 nM, 8 days of incubation, read-out: treated cells non viable (tryphan blue staining)
# Method: (§1) Panel A, HTB-3 cells (a human glioblastoma cell line) were grown in DMEM and 5% (v/v) fetal bovine serum. Cells (10^6 cells per ml) were treated (+) or not (−) with 2000 nM SYRAPRO-2000. Cell viability was then determined by counting the cells following tryphan blue staining after 4, 8 and 12 days of incubation. Panel B, Following treatment with or without SYRAPRO-2000 for 8 days, HTB-3 cells grown on slides were analyzed by phase contrast microscopy (Row A), by fluorescence microscopy following staining with FITC labeled annexin V (apoptotic cell death) (Row B) or propidium iodide (oncolytic cell death) on a Cells were analyzed on a Zeiss Axioplan 2 imaging universal microscope (Thornwood, N.Y.). Phase contrast images and Green (FITC labeled annexin V) and red (propidium iodide) fluorescence images were obtained. […]
# (§2) HTB-3 cells are grown in DMEM supplemented with 5% (v/v) fetal bovine serum and antibiotics and treated or not with 2 μM SYRAPRO-2000 for 8 days. Following treatment with SYRAPRO-2000, cell viability are then determined by counting the cells following tryphan blue staining. […] Following treatment with SYRAPRO-2000, cells grown on slides by were analyzed by phase contrast microscopy and fluorescence microscopy following staining with FITC labeled annexin V (an indicator of apoptotic cell death) or propidium iodide (an indicator of oncolytic or necrotic cell death). […]
# HTB-3 cells = assay: as above; assay type: cell-based, human; details: 2000 nM, 8 days
# Method: as §1, §2
# [2] = Dissolution of purified peptide in water; assay type: physicochemical
# Method: SYRAPRO-2000, a peptide compound activator of protein phosphatase-2A1 was prepared by chemical synthesis on an automated Solid Phase Peptide Synthesizer. Following synthesis, it was cleaved and purified by reverse phase HPLC on a C18 column. The structure of SYRAPRO-2000 is: […]. The molecular mass of SYRAPRO-2000 was determined by MALDI ToF MS. The purified material, a white solid was readily dissolved in and reconstituted in water at ˜1-2 mg/ml. For its use as an in vitro activator of protein phosphatase-2A1, it is dissolved in the assay buffer which consisted of 0.02 ml of enzyme solution in 50 mM Imidazole-Cl pH 7.2, 0.2 mM EGTA, 0.1% (v/v) 2-mercaptoethanol and 1 mg/ml bovine serum albumin. For its use on intact cells, it is dissolved in the culture medium.
# protein phosphatase-2C = assay: Protein phosphatase-2C assay; assay type: biochemical, pig; details: various concentrations
# Method: Protein phosphatase-1 (squares), protein phosphatase-2A1 (circles), protein phosphatase-2B (triangles) and protein phosphatase-2C (stars) were assayed in the presence of various concentrations of HIV-1 Vpr^71-96. 100 percent protein phosphatase activity is equivalent to 0.005 unit. Similar results were obtained in 3 independent experiments.
# ^32P-labeled phosphorylase a was prepared by phosphorylation of phosphorylase b with phosphorylase kinase as described in (Cohen 1988). ^32P-labeled casein was prepared by phosphorylation of casein with protein kinase A as described in (Tung 1986). Protein phosphatase-1 was purified from rabbit skeletal muscle as described in (Cohen 1988). Protein phosphatase-1 inhibitor-2 was purified from rabbit skeletal muscle as described in (Yang 1981). Protein phosphatase-2A0 and protein phosphatase-2A1 from pig brain and from pig liver were purified as described in (Tung 1985). Protein phosphatase-2A0 and protein phosphatase-2A1 from pig adipose tissue were highly purified by successive chromatography of pig subcutaneous adipose tissue extracts on DEAE Sepharose, Poly-L-lysine Agarose, Sephacryl S-300 HR and thiophosphorylase-a-Sepharose-4B as described in (Tung 1985). Protein phosphatase-2B was purified from pig brain as described in (Tung 1986). […]
smiles,measurement,setting,value
CC[C@H](C)[C@H](NC(=O)[C@H](CCCNC(=N)N)NC(=O)[C@H](CO)NC(=O)[C@H](Cc1c[nH]cn1)NC(=O)[C@H](CCCNC(=N)N)NC(=O)[C@H](CS)NC(=O)CNC(=O)[C@@H](NC(=O)[C@H](CCCNC(=N)N)NC(=O)[C@H](Cc1ccccc1)NC(=O)[C@@H](N)Cc1c[nH]cn1)[C@@H](C)CC)C(=O)NCC(=O)N[C@H](C(=O)N[C@H](C(=O)N[C@@H](CCCNC(=N)N)C(=O)N[C@@H](CCC(N)=O)C(=O)N[C@@H](CCCNC(=N)N)C(=O)N[C@@H](CCCNC(=N)N)C(=O)N[C@@H](C)C(=O)N[C@@H](CCCNC(=N)N)C(=O)N[C@@H](CC(N)=O)C(=O)NCC(=O)N[C@@H](C)C(=O)N[C@@H](CO)C(=O)N[C@@H](CCCNC(=N)N)C(=O)N[C@@H](CO)C(=O)O)[C@@H](C)O)C(C)C [SYRAPRO-2000],"cytotoxicity at 8 days, 2 µM",[1],~50%
same,mode of cell death (FITC-annexin V and propidium iodide staining),HTB-3 cells,apoptosis and oncolysis
same,readily dissolved and reconstituted in water,[2],1 to 2 mg/mL
same,effect on activity of protein phosphatase-2C,protein phosphatase-2C,negligible effect
